Measurements: PubChem BioAssay AID248 (DTP/NCI, 2004)
“And” between values parts separate entries of the source, which are not always exact repeats. Equal entries are not always repeated. Inconclusive results and toxic doses are left out. Rule as the data show it: active = T/C of 150% or more; inactive = T/C below 125%.

System: L1210 leukemia ip in BDF1 mice, survival T/C
Test: NCI In Vivo Anticancer Drug Screen. Data for tumor model L1210 Leukemia (intraperitoneal) in B6D2F1 (BDF1) mice
Settings: endpoint: mean survival time, higher = longer survival
Outline: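 Mice bearing the transplanted tumor received compound or vehicle. Survival of the treated group was divided by that of the vehicle-treated control group to give the ratio.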

[1] = dose: 3.13 mg/kg/injection, schedule: Q01DX009 (ip), vehicle: saline
[2] = dose: 6.25 mg/kg/injection, schedule: Q01DX009 (ip), vehicle: saline
[3] = dose: 12.5 mg/kg/injection, schedule: Q01DX009 (ip), vehicle: saline
[4] = dose: 100.0 mg/kg/injection, schedule: Q04DX003 (ip), vehicle: Klucel (hydroxypropylcellulose) (HPC)
[5] = dose: 200.0 mg/kg/injection, schedule: Q04DX003 (ip), vehicle: Klucel (hydroxypropylcellulose) (HPC)
[6] = dose: 400.0 mg/kg/injection, schedule: Q04DX003 (ip), vehicle: Klucel (hydroxypropylcellulose) (HPC)
[7] = dose: 100.0 mg/kg/injection, schedule: Q01DX009 (ip), vehicle: Klucel (hydroxypropylcellulose) (HPC)
[8] = dose: 200.0 mg/kg/injection, schedule: Q01DX009 (ip), vehicle: Klucel (hydroxypropylcellulose) (HPC)
[9] = dose: 400.0 mg/kg/injection, schedule: Q01DX009 (ip), vehicle: Klucel (hydroxypropylcellulose) (HPC)
[10] = dose: 100.0 mg/kg/injection, schedule: Q04DX002 (ip), vehicle: Klucel (hydroxypropylcellulose) (HPC)
[11] = dose: 100.0 mg/kg/injection, schedule: Q01DX001 (ip), vehicle: other
[12] = dose: 200.0 mg/kg/injection, schedule: Q01DX001 (ip), vehicle: other
[13] = dose: 400.0 mg/kg/injection, schedule: Q01DX001 (ip), vehicle: other

Measured: T/C

C[N+](C)(C)CCCC1C2CCC(C2)C1C#N (stereo not given)
inactive: [1] 101 % of control | [2] 97 % of control | [3] 98 % of control and 101 % of control | dose: 12.5 mg/kg/injection, schedule: Q04DX003 (ip), vehicle: saline 102 % of control | dose: 25.0 mg/kg/injection, schedule: Q04DX003 (ip), vehicle: saline 98 % of control | dose: 50.0 mg/kg/injection, schedule: Q04DX003 (ip), vehicle: saline 96 % of control

CC(O)CC1CC(=O)CCC1=O (stereo not given)
inactive: dose: 100.0 mg/kg/injection, schedule: Q01DX009 (ip), vehicle: acetone 96 % of control | dose: 200.0 mg/kg/injection, schedule: Q01DX009 (ip), vehicle: acetone 101 % of control | dose: 400.0 mg/kg/injection, schedule: Q01DX009 (ip), vehicle: acetone 102 % of control

N=C(N)SCc1ccccc1Cl
inactive: [1] 96 % of control | dose: 3.13 mg/kg/injection, schedule: Q04DX002 (ip), vehicle: saline 102 % of control | [2] 98 % of control | dose: 6.25 mg/kg/injection, schedule: Q04DX002 (ip), vehicle: saline 102 % of control | [3] 96 % of control | dose: 12.5 mg/kg/injection, schedule: Q04DX002 (ip), vehicle: saline 91 % of control | dose: 25.0 mg/kg/injection, schedule: Q01DX009 (ip), vehicle: saline 96 % of control | dose: 25.0 mg/kg/injection, schedule: Q04DX002 (ip), vehicle: saline 97 % of control and 98 % of control | dose: 50.0 mg/kg/injection, schedule: Q04DX002 (ip), vehicle: saline 94 % of control

Clc1ccc(/C=N/Nc2nnc(N/N=C/c3ccc(Cl)cc3Cl)c3ccccc23)c(Cl)c1
inactive: dose: 50.0 mg/kg/injection, schedule: Q01DX001 (ip), vehicle: carboxymethylcellulose (CMC) 88 % of control | dose: 100.0 mg/kg/injection, schedule: Q01DX001 (ip), vehicle: carboxymethylcellulose (CMC) 89 % of control | dose: 200.0 mg/kg/injection, schedule: Q01DX001 (ip), vehicle: carboxymethylcellulose (CMC) 93 % of control | dose: 400.0 mg/kg/injection, schedule: Q01DX001 (ip), vehicle: carboxymethylcellulose (CMC) 100 % of control

CC(=O)Nc1ccc(SCCCc2c(N)nc(N)nc2N)cc1
inactive: [4] 100 % of control | [5] 99 % of control | [6] 97 % of control

O=C1c2ccccc2C(=O)c2c1c(O)c1ccccc1c2O
inactive: dose: 100.0 mg/kg/injection, schedule: Q#A X Z (im), vehicle: other 96 % of control | dose: 100.0 mg/kg/injection, schedule: Q#A X Z (ip), vehicle: other 107 % of control | dose: 100.0 mg/kg/injection, schedule: Q#A X Z (sc), vehicle: other 100 % of control | dose: 200.0 mg/kg/injection, schedule: Q#A X Z (im), vehicle: other 97 % of control | dose: 200.0 mg/kg/injection, schedule: Q#A X Z (ip), vehicle: other 96 % of control | dose: 200.0 mg/kg/injection, schedule: Q#A X Z (sc), vehicle: other 107 % of control | dose: 300.0 mg/kg/injection, schedule: Q#A X Z (im), vehicle: other 94 % of control | dose: 300.0 mg/kg/injection, schedule: Q#A X Z (ip), vehicle: other 92 % of control | dose: 300.0 mg/kg/injection, schedule: Q#A X Z (sc), vehicle: other 97 % of control | dose: 400.0 mg/kg/injection, schedule: Q#A X Z (im), vehicle: other 94 % of control | dose: 400.0 mg/kg/injection, schedule: Q#A X Z (ip), vehicle: other 92 % of control | dose: 400.0 mg/kg/injection, schedule: Q#A X Z (sc), vehicle: other 96 % of control | dose: 500.0 mg/kg/injection, schedule: Q#A X Z (oral), vehicle: other 96 % of control | dose: 750.0 mg/kg/injection, schedule: Q#A X Z (oral), vehicle: other 100 % of control

c1ccc2c(c1)[nH]c1ccncc12
inactive: dose: 25.0 mg/kg/injection, schedule: Q04DX003 (ip), vehicle: saline with Tween-80 101 % of control | dose: 50.0 mg/kg/injection, schedule: Q04DX003 (ip), vehicle: saline with Tween-80 95 % of control | dose: 100.0 mg/kg/injection, schedule: Q04DX003 (ip), vehicle: saline with Tween-80 97 % of control

COc1cc(OC)c(NC(=O)c2c(Br)c(Br)c(Br)c(Br)c2C(=O)O)cc1Cl
inactive: [7] 107 % of control | [8] 94 % of control | [9] 95 % of control

CS(=O)(=O)N1CC(O)CN(S(C)(=O)=O)CC(O)C1 (stereo not given)
inactive: dose: 25.0 mg/kg/injection, schedule: Q04DX002 (ip), vehicle: Klucel (hydroxypropylcellulose) (HPC) 100 % of control | dose: 50.0 mg/kg/injection, schedule: Q04DX002 (ip), vehicle: Klucel (hydroxypropylcellulose) (HPC) 100 % of control | [10] 110 % of control

NC(=O)Nc1nc(-c2ccccc2)no1
inactive: [7] 103 % of control | [4] 97 % of control | [8] 93 % of control | [5] 105 % of control | [9] 95 % of control | [6] 89 % of control

CN(C)CCC1(CCN(C)C)C(=O)CCc2ccccc21
inactive: [11] 97 % of control | [12] 103 % of control | [13] 103 % of control

COc1cccc2c1C(=O)c1c(O)c3c(c(O)c1C2=O)C[C@@](O)(C(=O)COC(C)=O)C[C@@H]3OC1CC(N)C(O)C(C)O1 (stereo not given in full)
inactive: dose: 0.45 mg/kg/injection, schedule: Q04DX003 (ip), vehicle: saline 120 % of control | dose: 1.6 mg/kg/injection, schedule: Q04DX003 (ip), vehicle: saline 111 % of control | dose: 2.4 mg/kg/injection, schedule: Q04DX003 (ip), vehicle: saline 104 % of control
active: dose: 0.7 mg/kg/injection, schedule: Q04DX003 (ip), vehicle: saline 167 % of control

CC(=O)n1ncc2ccc([N+](=O)[O-])cc21
inactive: dose: 100.0 mg/kg/injection, schedule: Q01DX009 (ip), vehicle: water 105 % of control | dose: 100.0 mg/kg/injection, schedule: Q04DX003 (ip), vehicle: water 93 % of control | dose: 200.0 mg/kg/injection, schedule: Q01DX009 (ip), vehicle: water 105 % of control | dose: 200.0 mg/kg/injection, schedule: Q04DX003 (ip), vehicle: water 100 % of control | dose: 400.0 mg/kg/injection, schedule: Q01DX009 (ip), vehicle: water 107 % of control | dose: 400.0 mg/kg/injection, schedule: Q04DX003 (ip), vehicle: water 96 % of control

CCCN(CC#N)CCC
inactive: dose: 3.0 mg/kg/injection, schedule: Q01DX009 (ip), vehicle: Klucel (hydroxypropylcellulose) (HPC) 97 % of control | dose: 6.0 mg/kg/injection, schedule: Q01DX009 (ip), vehicle: Klucel (hydroxypropylcellulose) (HPC) 97 % of control | dose: 6.0 mg/kg/injection, schedule: Q04DX003 (ip), vehicle: Klucel (hydroxypropylcellulose) (HPC) 98 % of control | dose: 12.0 mg/kg/injection, schedule: Q01DX009 (ip), vehicle: Klucel (hydroxypropylcellulose) (HPC) 97 % of control | dose: 12.0 mg/kg/injection, schedule: Q04DX003 (ip), vehicle: Klucel (hydroxypropylcellulose) (HPC) 107 % of control | dose: 25.0 mg/kg/injection, schedule: Q04DX003 (ip), vehicle: Klucel (hydroxypropylcellulose) (HPC) 96 % of control

CN=NC(=O)c1cccc2c1-c1ccccc1C2=O
inactive: [11] 87 % of control | [12] 96 % of control | [13] 93 % of control

COc1cc2c(cc1OC)Cc1cc(OC)c(OC)cc1Cc1cc(OC)c(OC)cc1C2
inactive: dose: 100.0 mg/kg/injection, schedule: Q04DX003 (ip), vehicle: saline 92 % of control | dose: 200.0 mg/kg/injection, schedule: Q04DX003 (ip), vehicle: saline 96 % of control | dose: 400.0 mg/kg/injection, schedule: Q04DX003 (ip), vehicle: saline 97 % of control

COc1ccc(CO)cc1
inactive: dose: 75.0 mg/kg/injection, schedule: Q04DX003 (ip), vehicle: Klucel (hydroxypropylcellulose) (HPC) 95 % of control | dose: 150.0 mg/kg/injection, schedule: Q04DX003 (ip), vehicle: Klucel (hydroxypropylcellulose) (HPC) 101 % of control | dose: 300.0 mg/kg/injection, schedule: Q04DX003 (ip), vehicle: Klucel (hydroxypropylcellulose) (HPC) 91 % of control

O=C(N=C1SCCS1)Nc1cccc(Cl)c1
inactive: [10] 100 % of control | dose: 200.0 mg/kg/injection, schedule: Q04DX002 (ip), vehicle: Klucel (hydroxypropylcellulose) (HPC) 95 % of control | dose: 400.0 mg/kg/injection, schedule: Q04DX002 (ip), vehicle: Klucel (hydroxypropylcellulose) (HPC) 110 % of control
